From patent US20020082391A1, “Human occludin, its uses and enhancement of drug absorption using occludin inhibitors” (priority 1996, published 2002)

Assays:
[1] = test system: occludin-transfected fibroblasts (NRK cell clone, N2occ cells); test: Cell adhesion (suspended cell aggregation) assay, occludin-transfected NRK fibroblasts (N2occ); type: cell-based, rat; conditions: for inhibition of occludin-induced adhesion: NRK cell clone, peptide at 100 μM, 80 minutes
Description: Peptides were added in equal volumes of PBS at the start of the incubation period; extent of aggregation is shown after 80 minutes of incubation. Loop peptides represent contiguous sequences in the first extracellular loop; the internal peptide has the same pI as loop peptide #1. Peptide sequences are given in the Examples section. One of three experiments with identical results is shown.
For immunofluorescent localization studies, cells were grown on glass coverslips. […] MDCK cells were transfected and induced with sodium butyrate as described above and stable cells lines were plated and induced as described for immunoblots. Cells were washed with PBS, fixed in 1% paraformaldehyde in PBS, extracted with 0.1% Triton-X 100 and quenched with 50 mM NH4Cl in PBS. In experiments to test the accessibility to the anti-peptide #1 antibody, incubation of the primary antibody was performed without permeabilization of cells with Triton-X 100. Cells were blocked for 1 hour in PBS plus 2% goat serum, incubated in primary antibodies (anti-VSV-G at 10 ug/ml, guinea pig anti-occludin at 1:250, and anti-ZO-1 at 1:300; affinity-purified anti-peptide #1 antibody at 1:10) for 1 hour, washed and incubated in affinity-purified secondary antibodies (1:100) for 1 hour. Cells were washed, dipped in H2O and mounted in Vectashield (Vector Laboratories). The samples were examined with a Nikon Microfot-FX epifluorescence microscope; photographs were taken with TMAX400 film (Kodak, Rochester, NY) using the automatic exposure setting. Cell Adhesion Assay Adhesion of stably transfected cell lines was measured by a modification of the procedure described by Wesseling, J., et al., Mol. Biol. Cell 7:565-577 (1996). Cell lines were plated and induced with sodium butyrate as described above. Cell layers were rinsed twice with Ca^2+-Mg^2+-free PBS and then incubated for 30 minutes in Ca^2+-Mg^2+-free PBS plus 1 mM EDTA and 0.1 mg/ml DNAse. After 30 minutes, cells were mechanically dissociated, counted and resuspended at a concentration of 2.5×10^5 cells/ml in Ca^2+-Mg^2+-free PBS, 1 mM EDTA and 0.1 mg/ml DNAse. For each condition, the adhesion assay was performed in duplicate in two 50-ml conical tubes on a rotating platform at 80 rpm at 25° C. At each time point, the number of particles in two 175 ul aliquot of each tube was determined in a Coulter Counter (Hialeah, FL). The amount of adhesion was represented by Nt/N0, where N0 was the initial number of particles in each sample (the starting number of single cells), and Nt was the number at each time point. 100% of cells were single at the beginning of all assays, as determined by phase-contrast microscopy. Some experiments were performed in the presence of the peptides described above.
The ability of transfected occludin to confer adhesion onto fibroblast cell lines was assessed using a suspended cell aggregation assay (Wesseling, J., et al., Mol. Biol. Cell 7: 565-577 (1996)). All cells were counted as single particles at the beginning of the assay and any decrease in the fraction of particles over the 80 minute assay was the result of aggregates which are excluded by the Coulter Counter. Aggregation was qualitatively confirmed by light microscopic inspection and correlated with results quantified by the Coulter Counter. Immunofluorescence confirmed that ZO-1 and occludin are clustered between adherent cells after the 80 minute assay. […]

[2] = test system: occludin-transfected fibroblasts (Rat-1 cell clone); test: Cell adhesion (suspended cell aggregation) assay, occludin-transfected Rat-1 fibroblasts; type: cell-based; conditions: peptide at 100 μM
Description: For immunofluorescent localization studies, cells were grown on glass coverslips. […] MDCK cells were transfected and induced with sodium butyrate as described above and stable cells lines were plated and induced as described for immunoblots. Cells were washed with PBS, fixed in 1% paraformaldehyde in PBS, extracted with 0.1% Triton-X 100 and quenched with 50 mM NH4Cl in PBS. In experiments to test the accessibility to the anti-peptide #1 antibody, incubation of the primary antibody was performed without permeabilization of cells with Triton-X 100. […] Cell Adhesion Assay Adhesion of stably transfected cell lines was measured by a modification of the procedure described by Wesseling, J., et al., Mol. Biol. Cell 7:565-577 (1996). […] After 30 minutes, cells were mechanically dissociated, counted and resuspended at a concentration of 2.5×10^5 cells/ml in Ca^2+-Mg^2+-free PBS, 1 mM EDTA and 0.1 mg/ml DNAse. […] At each time point, the number of particles in two 175 ul aliquot of each tube was determined in a Coulter Counter (Hialeah, FL). […] 100% of cells were single at the beginning of all assays, as determined by phase-contrast microscopy. […]
The ability of transfected occludin to confer adhesion onto fibroblast cell lines was assessed using a suspended cell aggregation assay (Wesseling, J., et al., Mol. Biol. Cell 7: 565-577 (1996)). […]

Caco-2 cells = test: Transepithelial electrical resistance of Caco-2 monolayers after low calcium medium; type: cell-based, human; conditions: Caco-2, peptides at final concentration 100 μM, FIG. 2
Description: FIG. 2 is a graph showing inhibition of occludin-dependent intercellular adhesion using extracellular loop peptides corresponding to the N-terminal half of occludin extracellular loop #1 (peptide 1, SEQ ID NO 3) and the C-terminal half of extracellular loop #1 (peptide 2, SEQ ID NO 4) compared with an irrelevant peptide (peptide 3, SEQ ID NO 6). Caco-2 cells were plated on Falcon transwell cell culture inserts in DMEM supplemented with 10% fetal bovine serum and allowed to attach for 24 hours. Confluent monolayers were washed three times with calcium- and magnesium-free phosphate buffered saline and incubated in low calcium medium (supplemented with 5% dialyzed fetal bovine serum) for 24 hours. Transepithelial electrical ressitance was measured (time 0) and an equal volume of 2× DMEM/20% fetal bovine serum was added to all wells. To some wells, peptides were added with the fresh media. All peptides were added to a final concentration of 100 μM; transepithelial electrical resistance was measured in 3 wells of each treatment condition. Symbols represent the mean and standard deviation of each measurement.
Introduction of occludin into fibroblasts causes them to become adhesive. […] FIG. 2 provides data showing this same peptide inhibits transmonolayer electrical resistance in cultured human colonic epithelial cells. Thus, the peptides are occludin inhibitors.

human occludin = target: T1, human occludin (human, UniProt Q16625 1-522); test: cell-based or functional assay
T1 sequence: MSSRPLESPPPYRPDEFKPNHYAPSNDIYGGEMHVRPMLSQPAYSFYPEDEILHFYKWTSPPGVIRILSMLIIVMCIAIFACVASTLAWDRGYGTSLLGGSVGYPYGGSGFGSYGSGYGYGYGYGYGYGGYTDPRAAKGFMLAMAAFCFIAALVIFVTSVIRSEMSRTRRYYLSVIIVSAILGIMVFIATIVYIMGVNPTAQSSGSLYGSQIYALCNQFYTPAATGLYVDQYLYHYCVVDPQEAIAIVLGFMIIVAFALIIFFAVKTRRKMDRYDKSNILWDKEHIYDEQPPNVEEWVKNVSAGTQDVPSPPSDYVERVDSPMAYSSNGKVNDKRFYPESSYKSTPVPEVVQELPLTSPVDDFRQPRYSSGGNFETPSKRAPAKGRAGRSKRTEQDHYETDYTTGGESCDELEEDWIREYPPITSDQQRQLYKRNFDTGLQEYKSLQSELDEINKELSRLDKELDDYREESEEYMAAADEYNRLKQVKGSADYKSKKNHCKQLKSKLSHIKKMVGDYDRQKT

For “NHYAPSNDIYGGEMVHRPML (peptide construct used in experiments) [internal occludin peptide, reference compound]”, the “inhibiting occludin-dependent cell adhesion” value ([1]; same concentration range (1, 10 and 100 μM)) was “ineffective”.

For CSYGSGYGYGYGYGYGYGGYTDPR [peptide #2], the “inhibition of occludin-induced adhesion” value [1] was “completely inhibited adhesion”, the Ki ([1]; fibroblast adhesion assay, peptides tested at 1, 10 and 100 μM, read-out: apparent Ki (inhibition of adhesion)) was 10 to 100 µM and the “inhibition of occludin-induced adhesion” value [2] was “completely inhibited adhesion”. For the same molecule, the “inhibition of transepithelial (transmonolayer) electrical resistance” value (Caco-2 cells) was “inhibition”.

For CDRGYGTSLLGGSVGYPYGGSGFG [peptide #1], the “inhibition of occludin-induced adhesion” value [1] was “completely inhibited adhesion”, the reversal of adhesion ([1]; peptide at 10 μM) was “approximately half” and the “inhibition of occludin-induced adhesion” value [2] was “completely inhibited adhesion”. For the same molecule, the “inhibition of transepithelial (transmonolayer) electrical resistance” value (Caco-2 cells) was “inhibition”.

B1: peptide #1 (N-terminal half of occludin extracellular loop #1) (peptide)
peptide: CDRGYGTSLLGGSVGYPYGGSGFG
For B1, the “apparent Ki for inhibition of occludin-induced adhesion” value (human occludin) was roughly 10 µM.
